# Measurements from US4204038A, “Process for preparing antibiotics MA 144-M1 and MA 144-M2” (Zaidan Hojin Biseibutsu Kagaku Kenkyu Kai, priority 1976, dated 1980).
# Structures can show the parent of a compound that is named as a salt. Where two headings read alike, the source gives them in different places.
# How the values were obtained:
# Bac. cereus ATCC 9634 = assay: Minimum inhibitory concentration by the broth dilution method; assay type: cell-based; settings: Bacillus cereus
# Text: (§1) (1) MA 144-M1 and MA 144-M2 have antimicrobial activity against various kinds of microorganisms.
# [1] = tested on: Bac. megaterium NRRL B-938; assay: as above; assay type: cell-based; settings: Priestia megaterium
# Text: as §1
# Bac. subtilis ATCC 6633 = assay: as above; assay type: cell-based; settings: Bacillus subtilis
# Text: as §1
# Can. albicans IAM 4905 = assay: as above; assay type: cell-based; settings: Candida albicans
# Text: as §1
# Can. tropicalis IAM 4942 = assay: as above; assay type: cell-based; settings: Candida tropicalis
# Text: as §1
# Cory. bovis = assay: as above; assay type: cell-based; settings: Corynebacterium bovis, read-out: Minimum inhibitory concentration (MIC)
# Text: as §1
# Mic. flavus = assay: as above; assay type: cell-based; settings: Micrococcus flavus, read-out: Minimum inhibitory concentration (MIC)
# Text: as §1
# [2] = tested on: Mycobact. smegmatis ATCC 607; assay: as above; assay type: cell-based; settings: read-out: Minimum inhibitory concentration (MIC)
# Text: as §1
# Proteus morganii = assay: as above; assay type: cell-based; settings: Morganella morganii, read-out: Minimum inhibitory concentration (MIC)
# Text: as §1
# [3] = tested on: Ps. fluorescens NIH JB-254; assay: as above; assay type: cell-based; settings: Pseudomonas fluorescens
# Text: as §1
# Sarcina lutea ATCC 341 = assay: as above; assay type: cell-based; settings: Micrococcus luteus
# Text: as §1
# Staph. aureus FDA 209P = assay: as above; assay type: cell-based; settings: Staphylococcus aureus, FDA209P, read-out: Minimum inhibitory concentration (MIC)
# Text: as §1
# Staph. aureus Smith = assay: as above; assay type: cell-based; settings: Staphylococcus aureus, read-out: Minimum inhibitory concentration (MIC)
# Text: as §1
# Strept. pyogenes NY 5 = assay: as above; assay type: cell-based; settings: Streptococcus pyogenes
# Text: as §1
# L1210 = assay: Therapeutic effectiveness on L1210-bearing mice; assay type: in vivo; settings: intraperitoneally, day 0 to day 10, CDF1-L1210
# Method: (a) Therapeutic effectiveness on L1210-bearing mice
# Drug was administered intraperitoneally
# P388 = assay: Therapeutic effectiveness on P388-bearing mice; assay type: in vivo; settings: intraperitoneally, day 1 to day 9, CDF1-P388
# Method: (b) Therapeutic effectiveness on P388-bearing mice
# Drug was administered intraperitonally
# Sarcoma 180 = assay: Therapeutic effectiveness on Sarcoma 180 solid tumor; assay type: in vivo, dd mice; settings: intraperitoneally, day 1 to day 10; for Weight of tumor: control 1.68
# Method: (c) Therapeutic effectiveness on Sarcoma 180 solid tumor
# dd mice were inoculated with 2×10^6 cells of Sarcoma 180, and drug was administered intraperitoneally from day 1 to day 10.
# in vivo [4] = settings: Mouse
# in vivo [5] = settings: Rat
# L1210 cells [6] = assay: Cytotoxicity: growth of cultured L1210 cells; assay type: cell-based, mice; settings: for IC50: Mus musculus, read-out: ID50, Growth; for inhibition of the growth of cultured L1210 cells: at the low concentration, in words
# L1210 cells [7] = assay: DNA synthesis in cultured L1210 cells; assay type: cell-based, mice; settings: Mus musculus, L1210, read-out: ID50, DNA synthesis
# Method: (§2) In this experiment, L1210 cells were inoculated in RPMI 1640 medium (Nissui, Roswell Park Memorial Institute 1640) containing 10% calf serum and cultivated at 37° C. for 3 days in a CO2 incubator, and MA 144-M1, MA 144-M2 and ^14 C-precursor were added at various concentrations. Effects on the synthesis of protein, RNA and DNA were indicated by the 50% inhibition concentration (μg./ml.) as shown in the following table.
# L1210 cells [8] = assay: RNA synthesis in cultured L1210 cells; assay type: cell-based, mice; settings: for inhibition of RNA synthesis: L1210 cells, in words
# Method: as §2
# L1210 cells [9] = assay: Protein synthesis in cultured L1210 cells; assay type: cell-based, mice; settings: Mus musculus, L1210, read-out: % inhibition, Protein synthesis
# Method: as §2
# gram-positive bacteria = assay: Antimicrobial activity against gram-positive bacteria; assay type: cell-based; settings: in words
# Text: as §1
# Antitumor activity = assay type: in vivo; settings: in words
# Toxicity = settings: in words
# [10] = Basicity and lipophilicity
smiles,measurement,setting,value
CCC1(O)CC(OC2CC(N(C)C)C(OC3CC(O)C(OC4CCC(O)C(C)O4)C(C)O3)C(C)O2)c2c(cc3c(c2O)C(=O)c2c(O)cccc2C3=O)C1C(=O)OC (stereo not shown) [MA 144-M1],MIC,"Bac. cereus ATCC 9634; ATCC9634, read-out: Minimum inhibitory concentration (MIC)",0.78 µg/mL
same,MIC,"[1]; NRRLB938, read-out: Minimum inhibitory concentration (MIC)",3.1 µg/mL
same,MIC,"Bac. subtilis ATCC 6633; ATCC6633, read-out: Minimum inhibitory concentration (MIC)",0.4 µg/mL
same,MIC,"Can. albicans IAM 4905; IAM4905, read-out: Minimum inhibitory concentration (MIC)",100 µg/mL
same,MIC,"Can. tropicalis IAM 4942; IAM4942, read-out: Minimum inhibitory concentration (MIC)",> 100 µg/mL
same,MIC,Cory. bovis,0.4 µg/mL
same,MIC,Mic. flavus,0.2 µg/mL
same,MIC,[2],2.5 µg/mL
same,MIC,Proteus morganii,> 100 µg/mL
same,MIC,"[3]; NIHJB254, read-out: Minimum inhibitory concentration (MIC)",> 100 µg/mL
same,MIC,"Sarcina lutea ATCC 341; ATCC341, read-out: Minimum inhibitory concentration (MIC)",0.05 µg/mL
same,MIC,Staph. aureus FDA 209P,3.1 µg/mL
same,MIC,Staph. aureus Smith,0.2 µg/mL
same,MIC,"Strept. pyogenes NY 5; NY5, read-out: Minimum inhibitory concentration (MIC)",1.25 µg/mL
same,Prolongation of the survival time,L1210; 0.156 mg/kg/day,110%
same,Prolongation of the survival time,L1210; 0.313 mg/kg/day,110%
same,Prolongation of the survival time,L1210; 0.625 mg/kg/day,123%
same,Prolongation of the survival time,L1210; 1.25 mg/kg/day,137%
same,Prolongation of the survival time,L1210; 2.5 mg/kg/day,192%
same,Prolongation of the survival time,L1210; 5 mg/kg/day,200%
same,Prolongation of the survival time,L1210; 10 mg/kg/day,90%
same,Prolongation of the survival time,P388; 0.313 mg/kg/day,110%
same,Prolongation of the survival time,P388; 0.625 mg/kg/day,135%
same,Prolongation of the survival time,P388; 1.25 mg/kg/day,149%
same,Prolongation of the survival time,P388; 2.5 mg/kg/day,184%
same,Prolongation of the survival time,P388; 5 mg/kg/day,100%
same,% Inhibition of tumor growth,Sarcoma 180; 0.3 mg/kg/day,25.5%
same,Weight of tumor,Sarcoma 180; 0.3 mg/kg/day,1.25 g
same,% Inhibition of tumor growth,Sarcoma 180; 0.6 mg/kg/day,53.7%
same,Weight of tumor,Sarcoma 180; 0.6 mg/kg/day,0.78 g
same,% Inhibition of tumor growth,Sarcoma 180; 1.25 mg/kg/day,51.9%
same,Weight of tumor,Sarcoma 180; 1.25 mg/kg/day,0.81 g
same,% Inhibition of tumor growth,Sarcoma 180; 2.5 mg/kg/day,61.3%
same,Weight of tumor,Sarcoma 180; 2.5 mg/kg/day,0.65 g
same,% Inhibition of tumor growth,Sarcoma 180; 5 mg/kg/day,77.4%
same,Weight of tumor,Sarcoma 180; 5 mg/kg/day,0.38 g
same,LD50,in vivo [4]; ip,35 mg/kg
same,LD50,in vivo [4]; iv,30 to 35 mg/kg
same,LD50,in vivo [5]; ip,25 to 30 mg/kg
same,LD50,in vivo [5]; iv,25 to 30 mg/kg
same,IC50,"L1210 cells [6]; L1210, 72 h",0.12 µg/mL
same,inhibition of the growth of cultured L1210 cells,L1210 cells [6],inhibited markedly
same,IC50,L1210 cells [7],1.7 µg/mL
same,inhibition of RNA synthesis,L1210 cells [8],completely inhibited RNA synthesis
same,IC50,"L1210 cells [8]; Mus musculus, L1210, read-out: ID50, RNA synthesis",0.7 µg/mL
same,inhibition at 10 µg/mL,L1210 cells [9],10%
same,antimicrobial activity against gram-positive bacteria,gram-positive bacteria,show antimicrobial activity against gram-positive bacteria
same,antitumor activity,Antitumor activity,marked antitumor activity
same,toxicity,Toxicity,low toxicity
same,solubility: slightly soluble in,Solubility,"slightly soluble in water, diethyl ether and n-hexane"
same,solubility: soluble in,Solubility,"soluble in acidic water, dimethyl sulfoxide, methylcellosolve, methanol, ethanol, ethyl acetate, acetone, chloroform, benzene, toluene"
same,basicity,[10],Weakly basic
same,lipophilicity,[10],lipophilic
CCC1(O)CC(OC2CC(N(C)C)C(OC3CC(O)C(OC4CCC(O)C(C)O4)C(C)O3)C(C)O2)c2c(cc3c(c2O)C(=O)c2c(O)ccc(O)c2C3=O)C1C(=O)OC (stereo not shown) [MA 144-M2],MIC,"Bac. cereus ATCC 9634; ATCC9634, Bac. cereus ATCC 9634, broth dilution, read-out: Minimum inhibitory concentration (MIC)",0.05 µg/mL
same,MIC,"[1]; NRRLB938, Bac. megaterium NRRL B-938, broth dilution, read-out: Minimum inhibitory concentration (MIC)",0.78 µg/mL
same,MIC,"Bac. subtilis ATCC 6633; ATCC6633, Bac. subtilis ATCC 6633, broth dilution, read-out: Minimum inhibitory concentration (MIC)",0.05 µg/mL
same,MIC,"Can. albicans IAM 4905; IAM4905, Can. albicans IAM 4905, broth dilution, read-out: Minimum inhibitory concentration (MIC)",50 µg/mL
same,MIC,"Can. tropicalis IAM 4942; IAM4942, Can. tropicalis IAM 4942, broth dilution, read-out: Minimum inhibitory concentration (MIC)",100 µg/mL
same,MIC,"Cory. bovis; Cory. bovis, broth dilution",0.1 µg/mL
same,MIC,"Mic. flavus; Mic. flavus, broth dilution",0.2 µg/mL
same,MIC,"[2]; Mycobact. smegmatis ATCC 607, broth dilution",1.25 µg/mL
same,MIC,"Proteus morganii; Proteus morganii (the Institute for Infectious Diseases), broth dilution",> 100 µg/mL
same,MIC,"[3]; NIHJB254, Ps. fluorescens NIH JB-254, broth dilution, read-out: Minimum inhibitory concentration (MIC)",> 100 µg/mL
same,MIC,"Sarcina lutea ATCC 341; ATCC341, Sarcina lutea ATCC 341, broth dilution, read-out: Minimum inhibitory concentration (MIC)",0.05 µg/mL
same,MIC,"Staph. aureus FDA 209P; Staph. aureus FDA 209P, broth dilution",0.78 µg/mL
same,MIC,"Staph. aureus Smith; Staph. aureus Smith, broth dilution",0.1 µg/mL
same,MIC,"Strept. pyogenes NY 5; NY5, Strept. pyogenes NY 5, broth dilution, read-out: Minimum inhibitory concentration (MIC)",0.63 µg/mL
same,Prolongation of the survival time,L1210; 0.156 mg/kg/day,116%
same,Prolongation of the survival time,L1210; 0.313 mg/kg/day,144%
same,Prolongation of the survival time,L1210; 0.625 mg/kg/day,192%
same,Prolongation of the survival time,L1210; 1.25 mg/kg/day,200%
same,Prolongation of the survival time,L1210; 2.5 mg/kg/day,85%
same,Prolongation of the survival time,L1210; 5 mg/kg/day,46%
same,Prolongation of the survival time,P388; 0.313 mg/kg/day,125%
same,Prolongation of the survival time,P388; 0.625 mg/kg/day,148%
same,Prolongation of the survival time,P388; 1.25 mg/kg/day,206%
same,Prolongation of the survival time,P388; 2.5 mg/kg/day,83%
same,Prolongation of the survival time,P388; 5 mg/kg/day,57%
same,% Inhibition of tumor growth,Sarcoma 180; 0.3 mg/kg/day,16%
same,Weight of tumor,Sarcoma 180; 0.3 mg/kg/day,1.41 g
same,% Inhibition of tumor growth,Sarcoma 180; 0.6 mg/kg/day,46.5%
same,Weight of tumor,Sarcoma 180; 0.6 mg/kg/day,0.90 g
same,% Inhibition of tumor growth,Sarcoma 180; 1.25 mg/kg/day,76.8%
same,Weight of tumor,Sarcoma 180; 1.25 mg/kg/day,0.39 g
same,% Inhibition of tumor growth,Sarcoma 180; 2.5 mg/kg/day,83.3%
same,Weight of tumor,Sarcoma 180; 2.5 mg/kg/day,0.28 g
same,Weight of tumor,Sarcoma 180; 5 mg/kg/day,toxic
same,LD50,in vivo [4]; ip,12.5 mg/kg
same,LD50,in vivo [4]; iv,12 to 20 mg/kg
same,LD50,in vivo [5]; ip,10 to 15 mg/kg
same,LD50,in vivo [5]; iv,10 to 15 mg/kg
same,IC50,"L1210 cells [6]; 72 h, cultured L1210 cells, 37° C., 3 days",0.05 µg/mL
same,inhibition of the growth of cultured L1210 cells,L1210 cells [6],inhibited markedly
same,inhibition of RNA synthesis,L1210 cells [8],completely inhibited RNA synthesis
same,antimicrobial activity against gram-positive bacteria,gram-positive bacteria,show antimicrobial activity against gram-positive bacteria
same,antitumor activity,Antitumor activity,marked antitumor activity
same,toxicity,Toxicity,low toxicity
same,basicity,[10],Weakly basic
CCC1(O)CC(OC2CC(N(C)C)C(OC3CC(O)C(OC4CCC(O)C(C)O4)C(C)O3)C(C)O2)c2c(cc3c(c2O)C(=O)c2c(O)cccc2C3=O)C1C(=O)OC (stereo not shown) [MA 144-M1 hydrochloride salt],solubility: slightly soluble in,Solubility,slightly soluble in acetone and ethyl acetate
same,solubility: soluble in,Solubility,"soluble in water, methanol and chloroform"
